Source: US4532240A, “Diaminopyrimidines” (Warner-Lambert Company, priority 1983, dated 1985)
pIC50: −log10 of the molar value. Where “and” joins values, the source holds several entries; their conditions need not be identical. Identical values can stand only once. Counter-ions that a name gives are not always drawn. Values belong to the compound of their own block, whether it stands above or below them.

Key:
L1210 cells = experiment: In vitro antitumor screening on L1210 murine leukemia cell line (growth, Coulter counter); assay type: cell-based; details: Mus musculus, L1210, 72 h; three days, 37° C., 5% CO2; read-out: L1210 Leukemia in vitro ID50
Description: L1210 cells, a murine leukemia cell line, were grown in RPMI 1640 supplemented with 5% fetal bovine serum and gentamicin (50 μg/ml).
Drug dilutions were prepared in the appropriate solvent and 20 μl of each dilution were added to 24-well Linbro tissue culture plates, followed by the addition of M 2.0 ml of cell suspension containing 3×10^4cells per ml. Solvent and medium controls were included in each test. After incubation at 37° C. for three days in 5% CO2, the contents of each well were removed and the cells counted in a ZBI Coulter counter. Percent growth was calculated relative to the controls and the levels of drug activity were expressed as ID50 in moles per liter using probit paper.

[1] = test system: HCT-8 (human colon adenocarcinoma) cells; experiment: In vitro activity against HCT-8 human colon adenocarcinoma cells; assay type: cell-based; details: HCT-8, 60-65 hours with compound, 37° C., read-out: ID50 against human colon adenocarcinoma
Description: HCT-8 (human colon adenocarcinoma) cells are trypsinized using Trypsin-EDTA. A single cell suspension is achieved by passing the cells through a 26 gauge needle with a 20 cc syringe. A cell suspension is prepared using RPMI 1640+10% FCS+50 μg/ml garamycin with a cell concentration of approximately 30,000 cells/ml. The cell suspension is dispensed in Linbro 24-well plates; 1 ml/well. The plates are incubated for approximately 48 hours at 37° C. in a 5% CO2 atmosphere. At this time test compounds are added in the appropriate concentration. Five μl of the 200 μg/ml stock solution is added to each well in a primary test. Ten μl of the appropriate dilution is added to each well for a titration test. The plates are reincubated an additional 60-65 hours at 37° C. in a 5% CO2 atmosphere. The test is read by lysing the cells using a mix of cationic surfactant, glacial acetic acid and sodium chloride. […] of the lysed cell suspension from each well is added to 8 ml of diluent. Each sample is read on the Coulter counter (ZBI model). The activity of each sample is measured as a percentage of the controls and the data is reported as ID50, that is the molar quantity of drug required to kill 50% of the tumor cells.

M. faecalis = experiment: Antibacterial disk zone of inhibition, M. faecalis (as headed); assay type: cell-based, Streptococcus faecalis 05045; details: Enterococcus faecalis, read-out: Inhibition Zone diameter; for zone of inhibition at 100 µg/mL: 0.1 mg/ml
Description: (§1) Vegetative bacterial isolates are maintained on agar slants or in liquid media, hereby designated as inoculum media. The cultures are transferred at regular intervals in such media. (See Table IV for the corresponding inoculum media of each culture.) The organisms are generally transferred either onto agar slants or into liquid inoculum media and incubated at 37° C. (at 28° C. with Xanthomonas sp.) overnight (18-20 hours).
(§2) The microbial cells from the overnight agar slants are then scraped off and suspended in saline solution (0.85% NaCl). The microbial concentrations are adjusted to a light transmission of 8.6% using a PerkinElmer Model 35 spectrophotometer (550 nm). For the organisms that are maintained in liquid media, one of two procedures is followed: (1) the culture suspension is first centrifuged at 5000 rpm for five minutes. The pellet is resuspended in 0.85% saline to 8.6% light transmittancy; (2) an aliquot of the culture suspension is to be added directly to the assay medium.
(§3) A given molten-agar assay medium, maintained in a flask at approximately 45° C., is inoculated with 0.16-10 ml of an appropriate cell or spore suspension per 100 ml of medium. Fifty ml of the inoculated medium is poured into a Bio-Assay dish (A/S Nunc; Gibco Laboratories Catalog Number 240835) and spread evenly across the bottom, then allowed to solidify at room temperature. Each agar dish is inverted and refrigerated until used.
(§4) The compounds or samples to be tested are dissolved in suitable solvents, e.g., alcohols, dimethylsulfoxide, or N,N-dimethylformamide. The samples are generally dissolved so that the final concentration of the solvent is <10%.* The compounds are tested at different concentrations: 3,000; 1,000; 500; 100; and 10 mcg/ml. Paper discs (12.7 mm diameter) saturated with a given concentration of test compound are placed onto the seeded agar dishes with a pair of forceps.
(§5) The disked agar dishes are incubated at 37° C. (28° C. for Xanthamonas sp.) for 18-20 hours. Active compounds show a zone of inhibition around the disc. The diameter of the zone is measured in mm. The zone diameter of active compounds ranges from a minimum of 13.5 mm to as high as 60 mm. The size of the zone diameter generally reflects the activity of the compound: the larger the zone the greater the activity.

B. catarrhalis = experiment: Antibacterial disk zone of inhibition, B. catarrhalis; assay type: cell-based, Branhamella catarrhalis 03596; details: Moraxella catarrhalis, read-out: Inhibition Zone diameter; for zone of inhibition at 10 µg/mL: 0.01 mg/ml
Description: as §1, §2, §3, §4, §5

X. phaseoli = experiment: Antibacterial disk zone of inhibition, X. phaseoli; assay type: cell-based, Xanthomonas phascoli 06002; details: Xanthomonas; 3.0 mg/ml; read-out: Inhibition Zone diameter
Description: as §1, §2, §3, §4, §5

B. subtilis = experiment: Antibacterial disk zone of inhibition, B. subtilis; assay type: cell-based, Bacillus subtilis 04555; details: Bacillus subtilis, read-out: Inhibition Zone diameter
Description: as §1, §2
Isolate spore suspensions (Bacillus sp.) are maintained at 4° C. These suspensions serve as the inoculum media for assays.
as §3, §4, §5

S. lutea = experiment: Antibacterial disk zone of inhibition, S. lutea (as headed); assay type: cell-based, Micrococcus luteus 05064; details: Micrococcus luteus, read-out: Inhibition Zone diameter
Description: as §1, §2, §3, §4, §5

P388 Leukemia = experiment: In vivo lymphocytic leukemia P388 test in mice; design: species or system CD2 F1 mice; details: intraperitoneal, two single doses four days apart
Description: The in vivo lymphocytic leukemia P388 test is carried out using the test system of the United States National Cancer Institute. The animals used are either male or female CD2 F1 mice. There are six to seven animals per test group. The tumor transplant is by intraperitoneal injection of dilute ascitic fluid containing cells of lymphocytic leukemia P388. The test compounds are administered intraperitoneally in two single doses with a four-day interval between doses at various dose levels following tumor inoculation. The animals are weighed and survivors are recorded on a regular basis for 30 days. A ratio of survival time for treated (T)/control (C) animals is calculated. The criterion for efficacy is T/C×100>125%. The positive control compound in this test is 5-fluorouracil. See Cancer Chemotherapy Reports, Part 3, 3, 1 (1972) for a comprehensive discussion of the protocol.

- pIC50 [1]: 6.92
SMILES: CCCc1nc(N)nc(N)c1N1CCN(c2ccc(C#N)cc2)CC1 [Example 14, 5-[4-(4-cyanophenyl)-1-piperazinyl]-6-propyl-2,4-pyrimidinediamine]
- pIC50 (L1210 cells): 8.05

SMILES: CCCc1nc(N)nc(N)c1N1CCN(c2ccc(C(=O)NC(CCC(=O)O)C(=O)O)cc2)CC1 (stereo not drawn) [drawing 13]
- pIC50 (L1210 cells): 8.12

SMILES: CCCc1nc(N)nc(N)c1N1CCN(c2ccc(C(=O)NC(CCC(=O)O)C(=O)O)cc2)CC1 (stereo not drawn) [drawing 24]
- zone of inhibition at 100 µg/mL (M. faecalis): 16 mm
- zone of inhibition at 3000 µg/mL (B. catarrhalis; 3.0 mg/ml): 18 mm
- zone of inhibition at 3000 µg/mL (X. phaseoli): 0 mm
- zone of inhibition at 3000 µg/mL (B. subtilis; 3.0 mg/ml): 0 mm
- zone of inhibition at 1000 µg/mL (S. lutea; 1.0 mg/ml): 16 mm

SMILES: Cc1nc(N)nc(N)c1N1CCN(c2ccc(C(=O)O)cc2)CC1.Cl [Example 1, 4-[4-(2,4-Diamino-6-methyl-5-pyrimidinyl)-1-piperazinyl]benzoic acid hydrochloride]
- T/C × 100 (P388 Leukemia; 6.25 mg/kg, listed as CH3, H, H, 4-CO2 H, hydrochloride): 141% and 146%
- T/C × 100 (P388 Leukemia; 12.5 mg/kg, listed as CH3, H, H, 4-CO2 H, hydrochloride): 179% and 227%
- T/C × 100 (P388 Leukemia; 25 mg/kg): 137%
- T/C × 100 (P388 Leukemia; 50 mg/kg): 258%
- survival rate after 30 days (P388 Leukemia; 50 mg/kg): 3/6

- pIC50 [1]: 7.17
SMILES: CNC(=O)c1ccc(N2CCN(c3c(C)nc(N)nc3N)CC2)cc1 [Example 7, 4-[4-(2,4-Diamino-6-methyl-5-pyrimidinyl)-1-piperazinyl]-N-methyl benzamide, hydrate (100:45)]
- pIC50 (L1210 cells): 8.60

SMILES: CCc1nc(N)nc(N)c1N1CCN(c2ccc(C(=O)NC(CCC(=O)O)C(=O)O)cc2)CC1 (stereo not drawn) [drawing 11]
- pIC50 (L1210 cells): 5.70

SMILES: Cc1nc(N)nc(N)c1N1CCN(c2ccc(C(=O)N[C@@H](CCC(=O)O)C(=O)O)cc2)CC1 [drawing 21]
- zone of inhibition at 3000 µg/mL (M. faecalis; 3.0 mg/ml): 0 mm
- zone of inhibition at 10 µg/mL (B. catarrhalis): 25 mm
- zone of inhibition at 3000 µg/mL (X. phaseoli): 0 mm
- zone of inhibition at 10 µg/mL (B. subtilis; 0.01 mg/ml): 22 mm
- zone of inhibition at 3000 µg/mL (S. lutea; 3.0 mg/ml): 0 mm

- pIC50 [1]: < 6.00
SMILES: Cc1nc(N)nc(N)c1N1CCN(c2ccc([N+](=O)[O-])cc2)CC1 [Example 4, 6-Methyl-5-[4-(4-nitrophenyl)-1-piperazinyl]-2,4-pyrimidinediamine, hydrate (10:1)]
- pIC50 (L1210 cells): 7.82

- pIC50 [1]: 7.31
SMILES: CCOC(=O)c1ccc(N2CCN(c3c(C)nc(N)nc3N)CC2)cc1 [Example 6, 4-[4-(2,4-Diamino-6-methyl-5-pyrimidinyl)-1-piperazinyl]benzoic acid, ethyl ester]
- pIC50 (L1210 cells): 8.30

SMILES: CCOC(=O)CCC(NC(=O)c1ccc(N2CCN(c3c(N)nc(N)nc3CC)CC2)cc1)C(=O)OCC (stereo not drawn) [drawing 10]
- pIC50 (L1210 cells): 8.49

SMILES: Cc1nc(N)nc(N)c1N1CCN(c2ccc(C(=O)N[C@@H](CCC(=O)O)C(=O)O)cc2)CC1 [Example 3, N-[4-[4-(2,4-diamino-6-methyl-5-pyrimidinyl)-1-piperazinyl]benzoyl]-L-glutamic acid]
- T/C × 100 (P388 Leukemia; 6.25 mg/kg, listed as CH3, H, H, 4-CONHCH(CO2 H)CH2 CH2 CO2 H): 144% and 137%
- T/C × 100 (P388 Leukemia; 12.5 mg/kg, listed as CH3, H, H, 4-CONHCH(CO2 H)CH2 CH2 CO2 H): 155% and 168%
- T/C × 100 (P388 Leukemia; 25 mg/kg, listed as CH3, H, H, 4-CONHCH(CO2 H)CH2 CH2 CO2 H): 172% and 167%
- T/C × 100 (P388 Leukemia; 50 mg/kg): 222%
- T/C × 100 (P388 Leukemia; 50 mg/kg, listed as CH3, H, H, 4-CONHCH(CO2 H)CH2 CH2 CO2 H): 188%

SMILES: CCc1nc(N)nc(N)c1N1CCN(c2ccc(C(=O)NC(CCC(=O)O)C(=O)O)cc2)CC1 (stereo not drawn) [drawing 23]
- zone of inhibition at 100 µg/mL (M. faecalis): 14 mm
- zone of inhibition at 10 µg/mL (B. catarrhalis): 14 mm
- zone of inhibition at 3000 µg/mL (X. phaseoli): 15 mm
- zone of inhibition at 100 µg/mL (B. subtilis; 0.1 mg/ml): 20 mm
- zone of inhibition at 500 µg/mL (S. lutea; 0.5 mg/ml): 14 mm

SMILES: CCCc1nc(N)nc(N)c1N1CCN(c2ccc(C(=O)NC(CCC(=O)O)C(=O)O)cc2)CC1 (stereo not drawn) [drawing 17]
- pIC50 [1]: 7.07

- pIC50 [1]: 6.10
SMILES: COC(=O)CNC(=O)c1ccc(N2CCN(c3c(C)nc(N)nc3N)CC2)cc1 [Example 8, N-[4-[4-(2,4-Diamino-6-methyl-5-pyrimidinyl)-1-piperazinyl]benzoyl]glycine,methyl ester]
- pIC50 (L1210 cells): 7.77

SMILES: CCc1nc(N)nc(N)c1N1CCN(c2ccc(C(=O)NC(CCC(=O)O)C(=O)O)cc2)CC1 (stereo not drawn) [drawing 16]
- pIC50 [1]: 6.92

SMILES: CCOC(=O)CCC(NC(=O)c1ccc(N2CCN(c3c(N)nc(N)nc3CC)CC2)cc1)C(=O)OCC (stereo not drawn) [drawing 15]
- pIC50 [1]: 7.59

- pIC50 [1]: 7.05
SMILES: CCc1nc(N)nc(N)c1N1CCN(c2ccc(C#N)cc2)CC1 [Example 10, 5-[4-(4-cyanophenyl)-1-piperazinyl]-6-ethyl-2,4-pyrimidinediamine]
- pIC50 (L1210 cells): 8.11
- T/C × 100 (P388 Leukemia; 50 mg/kg): 126%

SMILES: CCOC(=O)CCC(NC(=O)c1ccc(N2CCN(c3c(N)nc(N)nc3CC)CC2)cc1)C(=O)OCC (stereo not drawn) [drawing 19]
- T/C × 100 (P388 Leukemia; 6.25 mg/kg): 163%
- T/C × 100 (P388 Leukemia; 12.5 mg/kg): 183%
- T/C × 100 (P388 Leukemia; 25 mg/kg): 241%
- survival rate after 30 days (P388 Leukemia; 25 mg/kg): 2/6
- T/C × 100 (P388 Leukemia; 50 mg/kg): 258%
- survival rate after 30 days (P388 Leukemia; 50 mg/kg): 5/6

SMILES: Cc1nc(N)nc(N)c1N1CCN(c2ccc(N)cc2)CC1 [Example 22]
- pIC50 (L1210 cells): 7.10

SMILES: Cc1nc(N)nc(N)c1N1CCN(c2ccccc2)CC1 [Example 20, 6-Methyl-5-(4-phenyl-1-piperazinyl)-2,4-pyrimidinediamine, hydrochloride (5:1)]
- pIC50 (L1210 cells): 6.82

- pIC50 [1]: 6.46
SMILES: Cc1nc(N)nc(N)c1N1CCN(c2ccc(Cl)cc2)CC1 [Example 21, 5-[4-(4-chlorophenyl)-1-piperazinyl]-6-methyl-2,4-pyrimidinediamine]
- pIC50 (L1210 cells): 7.55
